In assay [1] the test system is P. aeruginosa ATCC 27853 (APAE001). As to the kind of experiment: MIC assay, CLSI broth microdilution, APAE001. The assay is classed as cell-based. To be noted: Pseudomonas aeruginosa; APAE001 is ATCC27853; Mueller Hinton Broth, 35 C, 20 hours. The method, then: (§1) Minimum inhibitory concentrations (MIC) were determined by reference Clinical and Laboratory Standards Institute (CLSI) broth microdilution methods per M7-A7 [2006]. Quality control ranges utilizing E. coli ATCC 25922, P. aeruginosa ATCC 27853 and S. aureus ATCC 29213, and interpretive criteria for comparator agents were as published in CLSI M100-S17 [2007]. Briefly, serial two-fold dilutions of the test compounds were prepared at 2× concentration in Mueller Hinton Broth. The compound dilutions were mixed in 96-well assay plates in a 1:1 ratio with bacterial inoculum. The inoculum was prepared by suspension of a colony from an agar plate that was prepared the previous day. Bacteria were suspended in sterile saline and added to each assay plate to obtain a final concentration of 5×10^5 CFU/mL. The plates were incubated at 35 C for 20 hours in ambient air.

In assay [2] the test system is E. coli ATCC 25922 (AECO001). Description: MIC assay, CLSI broth microdilution, AECO001. Type of assay: cell-based. The following applies: Escherichia coli; AECO001 is ATCC25922; Mueller Hinton Broth, 35 C, 20 hours. The protocol: as §1

Each structure is given as a SMILES string. Values after ≈ are worked out from the molar mass of the structure shown. Where only a bound is given, the exact number is not on record here.

Turning to `NC[C@@H](O)[C@H](O)C(=O)N[C@@H]1C[C@H](N)[C@@H](O[C@H]2O[C@H](CN)[C@@H](O)C[C@H]2N)[C@H](O[C@@H]2O[C@H](CO)[C@@H](O[C@H]3O[C@@H](CN)[C@@H](O)[C@H](O)[C@H]3N)[C@H]2O)[C@H]1O` [1/11], the MIC in assay [1] was at most 1 µg/mL; in assay [2] it was 1 to 16 µg/mL (≈ 1.4 to 22.4 µM).
Regarding `NC[C@@H]1O[C@H](O[C@H]2[C@@H](O)[C@H](O[C@@H]3[C@@H](O)[C@H](NC(=O)[C@@H](O)[C@@H](O)CN)C[C@H](N)[C@H]3O[C@H]3O[C@H](CN)[C@@H](O)C[C@H]3N)O[C@@H]2CO)[C@H](N)[C@@H](O)[C@@H]1O` [2/3], the MIC was at most 1 µg/mL in assay [1] and 1 to 16 µg/mL (≈ 1.4 to 22.4 µM) in assay [2].
The matching figures for `NC[C@@H](F)[C@H](O)C(=O)N[C@@H]1C[C@H](N)[C@@H](O[C@H]2O[C@H](CN)[C@@H](O)C[C@H]2N)[C@H](O[C@@H]2O[C@H](CO)[C@@H](O[C@H]3O[C@@H](CN)[C@@H](O)[C@H](O)[C@H]3N)[C@H]2O)[C@H]1O` [3/3]: at most 1 µg/mL and at most 1 µg/mL.
In the same order, the values of `NC[C@@H]1O[C@H](O[C@H]2[C@@H](O)[C@H](O[C@@H]3[C@@H](O)[C@H](NC(=O)[C@@H](O)C(F)(F)CN)C[C@H](N)[C@H]3O[C@H]3O[C@H](CN)[C@@H](O)C[C@H]3N)O[C@@H]2CO)[C@H](N)[C@@H](O)[C@@H]1O` [4/3] are at most 1 µg/mL and 1 to 16 µg/mL (≈ 1.36 to 21.7 µM).
In the same order, the values of `NC[C@@H]1C[C@@H](O)[C@@H](N)[C@@H](O[C@H]2[C@H](O[C@@H]3O[C@H](CO)[C@@H](O[C@H]4O[C@@H](CN)[C@@H](O)[C@H](O)[C@H]4N)[C@H]3O)[C@@H](O)[C@H](NC(=O)[C@@H](O)[C@H](O)CN)C[C@@H]2N)O1` [5/12] are at most 1 µg/mL and 1 to 16 µg/mL (≈ 1.4 to 22.4 µM).
With `NC[C@@H]1C[C@@H](O)[C@@H](N)[C@@H](O[C@H]2[C@H](O[C@@H]3O[C@H](CO)[C@@H](O[C@H]4O[C@@H](CN)[C@@H](O)[C@H](O)[C@H]4N)[C@H]3O)[C@@H](O)[C@H](NC(=O)[C@@H](O)[C@@H](O)CN)C[C@@H]2N)O1` [6/3], the results for the MIC in assay [1] and in assay [2] were at most 1 µg/mL and 1 to 16 µg/mL (≈ 1.4 to 22.4 µM), respectively.
`NC[C@@H]1C[C@@H](O)[C@@H](N)[C@@H](O[C@H]2[C@H](O[C@@H]3O[C@H](CO)[C@@H](O[C@H]4O[C@@H](CN)[C@@H](O)[C@H](O)[C@H]4N)[C@H]3O)[C@@H](O)[C@H](NC(=O)[C@@H](O)[C@H](F)CN)C[C@@H]2N)O1` [7/3]: the MIC in assay [1] was at most 1 µg/mL; in assay [2], 1 to 16 µg/mL (≈ 1.39 to 22.3 µM).
The matching figures for `NC[C@@H]1C[C@@H](O)[C@@H](N)[C@@H](O[C@H]2[C@H](O[C@@H]3O[C@H](CO)[C@@H](O[C@H]4O[C@@H](CN)[C@@H](O)[C@H](O)[C@H]4N)[C@H]3O)[C@@H](O)[C@H](NC(=O)[C@@H](O)C(F)(F)CN)C[C@@H]2N)O1` [8/3]: at most 1 µg/mL and 1 to 16 µg/mL (≈ 1.36 to 21.7 µM).

The values are drawn from patent US8481502B2, “Antibacterial aminoglycoside analogs” (Achaogen, Inc., priority 2009, dated 2013).
